Laboratory results as given in patent US20180020669A1, “Methods for the Inhibition and Dispersal of Biofilms” (priority 2015, published 2018).

Columns and labels:
S. aureus NCTC 8325 = format: cell-based, Staphylococcus aureus
Procedure: The effect of auranofin on the growth of S. aureus was also assessed using a time kill assay. Exponentially growing S. aureus NCTC 8325 were diluted to approximately 5×10^6 cfu/mL in tryptic soy broth (TSB) and auranofin, rifampicin or both auranofin and rifampicin were added. Auranofin was added to cultures at a concentration of 5 μg/mL; 1 μg/mL or 0.5 μg/mL. Rifampicin was added to cultures at a concentration of 1 μg/mL or 0.2 pig/mL, while cultures with auranofin and rifampicin had 0.5 μg/mL auranofin and 0.2 μg/mL rifampicin. Cultures were sampled at various time points and colony forming units determined.

[1] = tested on: S. aureus (strain SH1000-GFP) in THP-1 cells; experiment: S. aureus infection of THP-1 cells (fluorescence microscopy); format: cell-based, Staphylococcus aureus; conditions: 1 μg/ml in 0.5% DMSO, moi 3, over 24 h
Procedure: THP-1, a human monocytic cell line was infected with S. aureus (strain SH1000-GFP) at a multiplicity of infection of 3 for 1.5. hours. Cells were washed 3 times and auranofin (1 μg/ml in 0.5% DMSO) or 0.5% DMSO was added. Cells were observed under a fluorescent microscope at various time points post infection (FIG. 3).

[2] = tested on: preformed S. aureus NCTC 8325 biofilms; experiment: Preformed biofilm assay (crystal violet); format: cell-based, Staphylococcus aureus
Procedure: The effect of auranofin, alone and in combination with antibiotics, on preformed S. aureus biofilms was assessed. Briefly S. aureus NCTC 8325 was plated in 96-well plates as described in Example 2 and incubated 37° C. for 24 hours. Biofilms were then washed 3 times with TSB and 150 μL of fresh TSB and 3 μL of auranofin at the appropriate dilution in DMSO was added to the wells in duplicate. Plates were again sealed with AeraSeal™ and reincubated 37° C. for 24 hours. Biofilm was then detected as described in above.

[3] = tested on: S. aureus NCTC 8325 and clinical isolates; experiment: Disc assay for resistance development; format: cell-based, Staphylococcus aureus; conditions: 4 μg disc, TSB agar, overnight
Procedure: Bacteria were plated on TSB agar. 3M discs (impregnated with 4 μg auranofin, 4 μg rifampicin or DMSO alone) were placed on top of the agar. The plates were incubated overnight at 37° C. and any zone of bacterial inhibition was measured. Any bacterial colonies growing within this zone of inhibition were picked and subsequently analysed for potential resistance against the appropriate compound/antibiotic using a growth or biofilm formation assay as described above. […] These S. aureus Rif mutants were tested in a growth assay and their rifampicin resistance confirmed.

S. aureus = experiment: Resistance frequency assay; format: cell-based, Staphylococcus aureus; conditions: CaMHB broth with serial dilutions of the compound
Procedure: Briefly, S. aureus was streaked out on TSB agar plates containing 1×, 1.5×, 2× and 4× the minimum inhibitory concentration of auranofin (1 μg/mL). Any potential mutants were picked and assessed for resistance. The potentially resistant bacteria were cultured overnight in CaMHB broth containing serial dilutions of auranofin, rifampicin or lincomycin and assessed for their resistance profile by measuring the growth of the bacteria in a growth assay and comparing it to the control. “Wild-type” bacteria that had not originally been grown in the agar plates and which were not resistant were also included in the growth assay. “Rif resistant cells” were picked from the rifampicin zone of inhibition and potential “Au resistant” mutants were picked from the edge of the auranofin zone of inhibition and tested.

[4] = tested on: rifampicin-resistant S. aureus mutants; format: cell-based, Staphylococcus aureus; conditions: discs with 4 μg (4 μg each), TSB agar, overnight, data not shown
[5] = tested on: multi-drug resistant clinical isolates of K. pneumoniae; format: cell-based, Klebsiella pneumoniae; conditions: 100 μg disc; C204742, C68761, C188681, C71173
Procedure: The ability of auranofin to inhibit the growth of four multi-drug resistant clinical isolates of K. pneumoniae was assessed. The clinical isolates were C204742 (resistant to ampicillin and gentamicin), C68761 (resistant to ampicillin, trimethoprim and sulfamethoxazole), C188681 (resistant to ampicillin, trimethoprim, sulfamethoxazole, ceftazidime, tobramycin and ciprofloxacin) and C71173 (resistant to ampicillin, trimethoprim, sulfamethoxazole, ceftazidime, tobramycin, gentamicin and ciprofloxacin). These strains have been previously described in Chowdhury et al., (2011) Antimicrob Agents Chemother 55: 3140-3149.
Bacterial colonies were picked and diluted 1/1000 in Luria broth (LB). 100 μL of each dilution was then streaked out on LB plates. Discs impregnated with 100 μg auranofin or 100 μg gentimicin or auranofin and gentamicin (100 μg each) were placed on top of the agar. The plates were incubated overnight at 37° C. and any zone of bacterial inhibition was noted.

[6] = tested on: E. coli K12 single-knockout mutants; experiment: Growth assay of Keio library redox mutants; format: cell-based
Procedure: To determine whether auranofin acts on the antioxidant pathway mutants from the Keio library, containing single-knockout mutants for all non-essential genes of E. coli K12 were tested in a growth assay.
Auranofin stock solution (20 mg/ml) in dimethyl sulfoxide (DMSO) was serially diluted in DMSO and each dilution added in duplicate to a 96-well plate to a final DMSO concentration of 2% (v/v). An overnight culture of E. coli mutants and wild type were diluted 1:100 in Luria Bertani (LB) broth and 150 μl of this sample was added to each well of the 96-well plates. Control wells included an ‘untreated’ control with bacteria in the presence of 2% DMSO and a negative sample (containing […] growth media in the presence of 2% DMSO). Plates were incubated at […] for 22-24 h and bacterial growth assessed by absorbance at a wavelength of 595 nm. The minimum inhibitory concentration (MIC) was defined as the lowest concentration of compound that inhibited growth compared to the no-treatment control.

[7] = tested on: A. baumannii (D2, A94 and ATCC 17978); experiment: Growth assay in LB, absorbance 595 nm; format: cell-based, Acinetobacter baumannii
Procedure: In the first growth assay, three strains of A. baumannii (D2, A94 and ATCC 17978) were cultured in LB in the presence of 1.25, 2.5, 5, 10, 20 or 40 μg/mL auranofin or 1.56, 3.13, 6.25, 12.5, 25, 50, 100 or 200 μg/mL gentamicin for 22-24 hours. Bacterial strains were also grown in the absence of antibiotic, and these were used as controls. The bacterial growth was determined by the measurement of absorbance at 595 nm using a Synergy HT Bio-Tek plate reader. The growth of A. baumannii was then assessed as a percentage of the positive control (bacteria alone grown in the presence of 2% DMSO).
A second growth assay was then performed to determine the effect of a combination of auranofin and gentamicin on bacterial growth. Briefly, A. baumannii was cultured in LB medium for 22-24 hours in the presence of […], 2.5, 5, 10, 20 or 40 μg/ml auranofin and 0, 30, 100, 300 or 1000 μg/ml gentamicin before growth was determined by the measurement of absorbance at 595 nm using a Synergy HT Bio-Tek plate reader. The growth of A. baumannii was then assessed as a percentage of the positive control (bacteria alone grown in the presence of 2% DMSO).

[8] = tested on: A. baumannii D2 biofilm formation; experiment: Biofilm prevention assay (crystal violet); format: cell-based, Acinetobacter baumannii; conditions: A. baumannii D2, 24 hours
Procedure: The effect of auranofin on the formation of A. baumannii D2 biofilm formation was assessed using the biofilm prevention assay described above in Example 2 with slight modifications. Briefly, A. baumannii D2 were grown overnight in LB media and diluted 1/100 before 150 μL was added to the wells of a flat bottomed 96-well plate. Three microliters of auranofin or gentamicin at the appropriate dilution in DMSO was added to the wells in duplicate. Controls included a positive control with bacteria alone with media and 2% DMSO and a negative (no bacteria) control with media containing 2% DMSO. Plates were sealed with AeraSeal™ and incubated at 37° C. for 24 hours. The plates were then washed three times with PBS, dried at 60° C. for 1 hour and stained with crystal violet for 1 hour. The plates were again washed three times with water, dried and scanned prior to the addition of 33% acetic acid to re-solubilize the crystal violet stain bound to the adherent cells. Absorbance was then measured at 595 nm and expressed as a percentage of the bacteria only control.

biofilm formation = experiment: Inhibition of biofilm formation (general description); format: cell-based; conditions: organism not stated
existing biofilms = experiment: Action against existing biofilms (general description); format: cell-based; conditions: for concentration for action against existing biofilms (not observed even at): organism not stated

In the case of CC[P](CC)(CC)=[Au][S][C@@H]1O[C@H](COC(C)=O)[C@@H](OC(C)=O)[C@H](OC(C)=O)[C@H]1OC(C)=O [auranofin, 2,3,4,6-tetra-o-acetyl-1-thio-J-D-glucopyranosato-S-(triethylphosphine) gold], the “development of resistant bacteria over time” value (S. aureus NCTC 8325; 0.5, 1 or 5 μg/mL auranofin, or 0.5 μg/mL auranofin with 0.2 μg/mL rifampicin) is reported as “no resistant bacteria were observed”, the “growth inhibitory effect in time kill assay” value (S. aureus NCTC 8325; auranofin 0.5, 1 or 5 μg/mL, TSB) is reported as “concentration- and time-dependent” and the “intracellular and extracellular S. aureus growth in infected THP-1 cells” value [1] is reported as “inhibited intracellular and extracellular S. aureus growth”. For the same molecule, the “effect on the biofilm, compound alone” value ([2]; 5 μg/mL auranofin alone or 1.5 μg/mL rifampicin alone) was “only a partial effect”, the “effect on existing S. aureus biofilm” value ([2]; 20 μg/mL and 40 μg/mL auranofin) was “essentially eliminating the biofilm” and the “effect on existing S. aureus biofilms (crystal violet staining)” value ([2]; 24 hours treatment, FIG. 5) was “dose-dependent inhibitory effect”. The “bacterial colonies growing within the zone of inhibition (resistance)” value [3] was “No growth was observed”, the zone of inhibition ([3]; NCTC 8325 and clinical isolates incl. MRSA) was “produced zones of inhibition” and the “resistance of potential mutants picked from agar plates, growth assay” value (S. aureus) was “none of the potentially auranofin-resistant bacteria picked from agar plates were actually resistant”. The “zone of inhibition on rifampicin-resistant mutants” value [4] was “Zones of inhibition formed”, the “growth inhibition, disc assay” value [5] was “shows inhibitory activity against all four multi-drug resistant clinical isolates tested” and the “effect of depletion on sensitivity to auranofin” value ([6]; depletion of gor) was “little effect”. The “sensitivity to auranofin compared to the wild-type strain” value ([6]; mutant lacking gsha) was “more sensitive” and the “sensitivity to auranofin compared to the wild-type strain” value ([6]; mutant lacking gshb) was “more sensitive”.
For CO[C@H]1/C=C/O[C@@]2(C)Oc3c(C)c(O)c4c(O)c(c(/C=N/N5CCN(C)CC5)c(O)c4c3C2=O)NC(=O)/C(C)=C\C=C\[C@H](C)[C@H](O)[C@@H](C)[C@@H](O)[C@@H](C)[C@H](OC(C)=O)[C@@H]1C [rifampicin], the “time after which bacterial growth starts to increase (development of resistance)” value (S. aureus NCTC 8325; 0.2 μg/mL and 1 μg/mL rifampicin) was “about 10 hours”.
With gentamicin the “effect on biofilm mass, antibiotic alone” value ([2]; 0.9 or 3 μg/mL rifampicin, 25 or 75 μg/mL gentamicin) was “no effect on biofilm mass”, the “susceptibility in growth assay” value ([7]; A. baumannii A94) was “partially resistant” and the “susceptibility in growth assay” value ([7]; A. baumannii ATCC 17978) was “susceptible”. For the same molecule, the “susceptibility in growth assay” value ([7]; A. baumannii D2) was “completely resistant” and the “concentration that completely prevented biofilm formation” value [8] was greater than 20 µg/mL.
In the case of CC(=O)NC[C@H]1CN(c2ccc(N3CCOCC3)c(F)c2)C(=O)O1 [linezolid], the “concentration at which inhibition of biofilm formation is observed” value (biofilm formation) is reported as roughly 6 µg/mL, the “shift between inhibition of biofilm formation and action against existing biofilms” value (existing biofilms; at least) is reported as no less than 15 fold and the “concentration for action against existing biofilms (not observed even at)” value (existing biofilms) is reported as greater than 100 µg/mL.
In the case of CC[C@H]1OC(=O)[C@H](C)[C@@H](O[C@H]2C[C@@](C)(OC)[C@@H](O)[C@H](C)O2)[C@H](C)[C@@H](O[C@@H]2O[C@H](C)C[C@H](N(C)C)[C@H]2O)[C@](C)(O)C[C@@H](C)C(=O)[C@H](C)[C@@H](O)[C@]1(C)O [erythromycin], the “concentration at which inhibition of biofilm formation is observed” value (biofilm formation) is reported as 0.1 to 0.3 µg/mL and the “concentration for action against existing biofilms (not observed even at)” value (existing biofilms) is reported as greater than 3 µg/mL.
